In one assay the target is T1, human P2X4 (Homo sapiens, UniProt Q99571).
T1 construct: expressed in transfected cells
T1 sequence (Q99571 1-388): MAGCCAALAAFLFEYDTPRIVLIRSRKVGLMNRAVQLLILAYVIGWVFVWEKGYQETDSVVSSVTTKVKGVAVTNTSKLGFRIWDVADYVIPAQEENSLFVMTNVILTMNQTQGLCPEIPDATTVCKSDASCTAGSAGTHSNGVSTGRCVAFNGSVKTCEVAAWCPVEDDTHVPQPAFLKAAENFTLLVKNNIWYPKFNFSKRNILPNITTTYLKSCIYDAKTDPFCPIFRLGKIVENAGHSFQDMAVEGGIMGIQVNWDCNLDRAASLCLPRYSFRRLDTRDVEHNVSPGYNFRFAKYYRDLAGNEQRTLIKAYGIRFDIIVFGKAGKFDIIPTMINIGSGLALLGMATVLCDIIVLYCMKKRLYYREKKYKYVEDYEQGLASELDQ
The experiment in a line: Fluo-4 ATP-induced calcium influx assay. Particulars: 10 µM compound; 1.2 µM ATP; 1321N1 cells. It is filed as cell-based. As for the experimental part:
1321N1 astrocytoma cells and HEK-293 cells were cultured (at 37°C, 5% CO2) in Dulbecco’s modified Eagle’s medium (DMEM/F-12 with Glutamax) supplemented with 10% foetal bovine serum (FBS) and 200 unit/ml of penicillin and streptomycin antibiotics (Fisher Scientific). […]
Cells were plated the day before assay into poly-lysine-coated 96-well plates at 40–65,000 cells/ml. […] A Fluoroskan Ascent FL plate reader (Fisher Scientific) equipped with a solution dispenser and an appropriate filter pair (excitation: 485 nm, emission: 538 nm) was used to record 5 s baseline followed by P2X4-mediated calcium influx measurements for 20–25 s after ATP stimulation (20 μL injection of solutions dissolved in modified Ringer’s buffer).
(§1) The antagonist activity of the 17 compounds (applied at 10 µM) was assayed initially on 1321N1 astrocytoma cells stably expressing human P2X4 receptors by measuring the ATP-induced (applied at 1.2 µM) increase in Fluo-4 fluorescence due to calcium influx via P2X4, using 2 µM BX430 as a positive control (Figure 1A). […] The ATP-induced rate of uptake of YoPro-1 dye was measured upon application of at 300 µM ATP, using .1 µM A740003 as a positive control (Figure 1B).

A further assay has as its target T2, human P2X7 (Homo sapiens, UniProt Q99572).
T2 construct: expressed in transfected cells; host or cells: 1321N1 astrocytoma cells (compounds 1-17); HEK-293 cells stably expressing human P2X7 (gift of E. Adinolfi)
T2 sequence (Q99572 1-595): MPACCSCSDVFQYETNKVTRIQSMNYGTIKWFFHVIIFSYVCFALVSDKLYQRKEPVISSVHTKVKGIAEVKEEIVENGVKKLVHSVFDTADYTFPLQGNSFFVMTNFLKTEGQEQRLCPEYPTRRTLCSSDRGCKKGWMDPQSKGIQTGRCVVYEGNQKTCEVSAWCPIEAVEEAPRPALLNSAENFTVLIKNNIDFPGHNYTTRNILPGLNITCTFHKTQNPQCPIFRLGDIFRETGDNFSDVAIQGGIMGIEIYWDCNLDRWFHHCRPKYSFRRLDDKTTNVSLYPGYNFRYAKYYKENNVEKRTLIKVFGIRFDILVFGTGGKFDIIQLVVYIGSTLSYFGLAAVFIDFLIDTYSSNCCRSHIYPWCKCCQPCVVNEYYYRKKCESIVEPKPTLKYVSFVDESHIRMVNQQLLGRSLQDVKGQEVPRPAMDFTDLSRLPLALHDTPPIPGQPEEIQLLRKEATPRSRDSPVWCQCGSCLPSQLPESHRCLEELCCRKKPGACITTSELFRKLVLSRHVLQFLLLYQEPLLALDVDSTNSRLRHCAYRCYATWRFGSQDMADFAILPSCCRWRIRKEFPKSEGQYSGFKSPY
Description: ATP-induced YoPro-1 dye uptake assay, human P2X7. In kind it is cell-based. To be noted: 300 µM ATP, YoPro-1 uptake. How it is done:
1321N1 astrocytoma cells and HEK-293 cells were cultured (at 37°C, 5% CO2) in Dulbecco’s modified Eagle’s medium (DMEM/F-12 with Glutamax) supplemented with 10% foetal bovine serum (FBS) and 200 unit/ml of penicillin and streptomycin antibiotics (Fisher Scientific). For stable cell line generation, cells were transfected using FuGene HD Transfection Reagent (Promega) according to the manufacturer’s protocol with plasmids encoding either human P2X4 with a C-terminal (His)10 tag ([Young et al., 2008]), human P2X7 with a C-terminal EYMPME tag (kindly provided by R.A. North) or rat P2X7 C-terminally tagged with a GFP-(His)8 tag, generated by PCR amplification of the coding sequence for rat P2X7 from a pcDNA-based expression vector ([Young et al., 2007]), adding XhoI and EcoRI sites at the 5′- and 3′- ends respectively, followed by restriction digestion and ligation into a zebrafish P2X4-GFP expression vector based on pEGFP-C1 (kindly provided by Eric Gouaux; [Kawate and Gouaux, 2006]) to replace the zebrafish P2X4 coding region with rP2X7. Transfected clones were grown in DMEM/F-12 with Glutamax medium supplemented with G-418 (Geneticin®, Fisher Scientific), 600 μg/ml and 150 μg/ml during selection and maintenance respectively. […] HEK-293 cells stably expressing human P2X7 ([Adinolfi et al., 2010]) were a kind gift from Elena Adinolfi.
Cells were plated as for the calcium influx assay (Section 2.4). Culture medium was replaced with low divalent cation containing extracellular solution (ECS-LD; 147 mM NaCl, 10 mM HEPES, 13 mM Glucose, .2 mM CaCl2, 2 mM KCl. pH = 7.4 in MilliQ water) and 5 μM Yopro-1. […] The baseline was measured with a BMG Clariostar instrument for 5–10 cycles, followed by addition of ATP (or BzATP) and recording for at least 30 further cycles (approx. 1 min per data point). The collected responses were normalized to the first data-point recorded after ATP addition. The initial gradient of the dye uptake curve was used to calculate the response to ATP.
as §1
A small library of 16 commercially available compounds was selected according to the presence of the same scaffold as GP-25, (70% similarity, Tanimoto index) and/or presence of at least one functional group we hypothesized could contribute to GP-25 activity (e.g. carboxylic acid, halogen substituent to the aromatic ring, ester, etc.) (Compounds 18–33; Table 1). […] Although the number of compounds tested was limited by their availability via a commercial source, the numerous ‘hits’ allowed for a basic structure-relationship (SAR) analysis.

For `COC(=O)C1=C(C)NC2=C(C(=O)c3ccccc32)C1c1cc(Br)ccc1OCC(=O)O` (stereo not drawn) [Compound 9, (4-bromo-2-(3-(methoxycarbonyl)-2-methyl-5-oxo-4,5-dihydro-1H-indeno(1,2-b)pyridine-4-yl)phenoxy)acetic acid], the “antagonist activity at human P2X4” value on human P2X4 is “no activity”. Also, the inhibition at 30 µM at human P2X7 (P2X7, approx. % inhibition at 30 μM compound, 1321N1 (1-17) or HEK (18-33) cells, read-out: % Inhibition at hP2X7) was around 75%. At human P2X7, the IC50 came out at 8.7 µM.

Values taken from publication PMC9877316, “Identification of a novel P2X7 antagonist using structure-based virtual screening” (Frontiers in Pharmacology, 2023).
